How the values were obtained:
[1] = tested on: Monographella nivalis (Microdochium nivale); test: Monographella nivalis (Microdochium nivale) / liquid culture (foot rot cereals); format: cell-based; conditions: growth inhibition photometrically 4-5 days after application, compared to untreated control
Description: 8. Monographella nivalis (Microdochium nivale)/Liquid Culture (Foot Rot Cereals) Conidia of the fungus from cryogenic storage are directly mixed into nutrient broth (PDB potato dextrose broth). After placing a (DMSO) solution of test compound into a microtiter plate (96-well format), the nutrient broth containing the fungal spores is added. The test plates are incubated at 24° C. and the inhibition of growth is determined photometrically 4-5 days after application.

[2] = tested on: Pythium ultimum; test: Pythium ultimum / liquid culture (seedling damping off); format: cell-based; conditions: Globisporangium ultimum, growth inhibition photometrically 2-3 days after application, compared to untreated control
Description: 15. Pythium ultimum/Liquid Culture (Seedling Damping Off) Mycelia fragments and oospores of a newly grown liquid culture of the fungus are directly mixed into nutrient broth (PDB potato dextrose broth). After placing a (DMSO) solution of test compound into a microtiter plate (96-well format), the nutrient broth containing the fungal mycelia/spore mixture is added. The test plates are incubated at 24° C. and the inhibition of growth is determined photometrically 2-3 days after application.

Row | Compound | inhibition of growth at 20 ppm [1] [%] | inhibition of growth at 20 ppm [2] [%]
1 | COc1c(C(=O)NCc2c(C)cccc2Cl)ccc2c1B(O)OC2 [Compound 31, N-[(2-chloro-6-methyl-phenyl)methyl]-1-hydroxy-7-methoxy-3H-2,1-benzoxaborole-6-carboxamide] | ≥ 80 | ≥ 80
2 | CCOc1ccc(NC(=O)c2ccc3c(c2OC)B(O)OC3)cc1Cl [Compound 41, N-(3-chloro-4-ethoxy-phenyl)-1-hydroxy-7-methoxy-3H-2,1-benzoxaborole-6-carboxamide] | ≥ 80 | 
3 | COc1c(C(=O)Nc2nc(C(C)C)ncc2C)ccc2c1B(O)OC2 [Compound 45, 1-hydroxy-N-(2-isopropyl-5-methyl-pyrimidin-4-yl)-7-methoxy-3H-2,1-benzoxaborole-6-carboxamide] | ≥ 80 | ≥ 80
4 | COc1c(C(=O)Nc2n[nH]c(C(F)(F)F)n2)ccc2c1B(O)OC2 [Compound 46, 1-hydroxy-7-methoxy-N-[5-(trifluoromethyl)-1H-1,2,4-triazol-3-yl]-3H-2,1-benzoxaborole-6-carboxamide] | ≥ 80 | ≥ 80
5 | COc1c(C(=O)N(C)c2nnc(C(F)(F)F)s2)ccc2c1B(O)OC2 [Compound 49, 1-hydroxy-7-methoxy-N-methyl-N-[5-(trifluoromethyl)-1,3,4-thiadiazol-2-yl]-3H-2,1-benzoxaborole-6-carboxamide] | ≥ 80 | ≥ 80
6 | COC(=O)c1cccc(NC(=O)c2ccc3c(c2OC)B(O)OC3)c1 [Compound 52, methyl 3-[(1-hydroxy-7-methoxy-3H-2,1-benzoxaborole-6-carbonyl)amino]benzoate] | ≥ 80 | ≥ 80
7 | COc1c(C(=O)Nc2ccc(Cl)cc2F)ccc2c1B(O)OC2 [Compound 54, N-(4-chloro-2-fluoro-phenyl)-1-hydroxy-7-methoxy-3H-2,1-benzoxaborole-6-carboxamide] | ≥ 80 | 
8 | COc1c(C(=O)Nc2ccc(OC(F)(F)F)cc2)ccc2c1B(O)OC2 [Compound 55, 1-hydroxy-7-methoxy-N-[4-(trifluoromethoxy)phenyl]-3H-2,1-benzoxaborole-6-carboxamide] | ≥ 80 | 
9 | COc1c(C(=O)NC(C)c2ccc(F)cc2)ccc2c1B(O)OC2 (centres unmarked) [Compound 57, N-[1-(4-fluorophenyl)ethyl]-1-hydroxy-7-methoxy-3H-2,1-benzoxaborole-6-carboxamide] | ≥ 80 | ≥ 80
10 | CCCNC(=O)c1ccc2c(c1OC)B(O)OC2 [Compound 63, 1-hydroxy-7-methoxy-N-propyl-3H-2,1-benzoxaborole-6-carboxamide] | ≥ 80 | ≥ 80
11 | COc1c(C(=O)Nc2ccc(C)cn2)ccc2c1B(O)OC2 [Compound 66, 1-hydroxy-7-methoxy-N-(5-methyl-2-pyridyl)-3H-2,1-benzoxaborole-6-carboxamide] | ≥ 80 | ≥ 80
12 | COc1c(C(=O)OCc2cccc(C)n2)ccc2c1B(O)OC2 [Compound 119, (6-methyl-2-pyridyl)methyl 1-hydroxy-7-methoxy-3H-2,1-benzoxaborole-6-carboxylate] | ≥ 80 | ≥ 80
13 | COc1c(C(=O)OCCc2ccccn2)ccc2c1B(O)OC2 [Compound 123, 2-(2-pyridyl)ethyl 1-hydroxy-7-methoxy-3H-2,1-benzoxaborole-6-carboxylate] |  | ≥ 80
14 | COc1cc(COC(=O)c2ccc3c(c2OC)B(O)OC3)ccc1O [Compound 126, (4-hydroxy-3-methoxy-phenyl)methyl 1-hydroxy-7-methoxy-3H-2,1-benzoxaborole-6-carboxylate] |  | ≥ 80

Reference: US20180244699A1, “1-HYDROXY-3H-2,1-BENZOXABOROLE DERIVATIVES AND THEIR USE AS MICROBIOCIDES” (Syngenta Participations AG, priority 2015, published 2018)
